Assay results: patent publication US20250136606A1, “MODULATORS OF TRPML, THEIR COMPOSITIONS AND METHODS OF USE” (Caraway Therapeutics, Inc., priority 2021, published 2025)

Experiments:
Assay type in all cases: cell-based
Conditions in all cases: fluorescent calcium assay
TRPML1 = TRPML1 (Homo sapiens, UniProt Q9GZU1); experiment: Fluorescent TRPML1 assay (Fluo4-AM calcium fluorescence in doxycycline-induced HEK-293 Trex cells)
Summary of the method: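 EC50 values come from non-linear regression of percent activity, normalized to on-plate positive and negative controls, with fluorescence read at 480 nm excitation and 540 nm emission. Fluo4-AM-loaded (1 µM) doxycycline-induced HEK-293 Trex cells expressing mutated human TRPML1 were exposed in 10 mM calcium Ringer's to 6 nM–20 µM compound, in triplicate.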

TRPML2 = molecular target: T1, TRPML2 (Homo sapiens, UniProt Q8IZK6); experiment: Fluorescent TRPML2 assay (performed as for TRPML1, substituting the TRPML2 subtype)
T1 construct: expressed in transfected cells
T1 sequence (Q8IZK6 1-566): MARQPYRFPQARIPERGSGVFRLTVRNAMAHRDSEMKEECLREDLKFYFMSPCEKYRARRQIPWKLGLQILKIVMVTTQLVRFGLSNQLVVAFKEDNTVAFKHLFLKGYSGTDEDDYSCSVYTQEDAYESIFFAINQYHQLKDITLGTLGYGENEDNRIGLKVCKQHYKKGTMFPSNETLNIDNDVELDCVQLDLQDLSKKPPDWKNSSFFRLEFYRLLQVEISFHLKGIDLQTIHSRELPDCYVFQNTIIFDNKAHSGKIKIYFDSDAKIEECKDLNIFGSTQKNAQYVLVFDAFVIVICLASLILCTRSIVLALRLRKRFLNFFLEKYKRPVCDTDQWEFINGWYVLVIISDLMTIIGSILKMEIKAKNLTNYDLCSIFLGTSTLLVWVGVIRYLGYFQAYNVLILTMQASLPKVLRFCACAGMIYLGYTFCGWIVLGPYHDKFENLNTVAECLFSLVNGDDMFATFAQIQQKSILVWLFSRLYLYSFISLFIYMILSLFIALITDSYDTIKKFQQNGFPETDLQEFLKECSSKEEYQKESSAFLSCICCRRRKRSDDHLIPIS
Summary of the method: (§1)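 HEK-293 Trex cells with doxycycline-induced (0.5 ug/mL) surface-directed human TRPML subtype, loaded with 1 μM Fluo4-AM, resuspended in Ringer's with 10 mM calcium. Compounds at 20 μM to 6 nM final in half-log steps, triplicate; fluorescence ex 480/em 540; EC50 by non-linear regression versus plate controls.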

TRPML3 = molecular target: T2, TRPML3 (Homo sapiens, UniProt Q8TDD5); experiment: Fluorescent TRPML3 assay (performed as for TRPML1, substituting the TRPML3 subtype)
T2 construct: expressed in transfected cells
T2 sequence (Q8TDD5 1-553): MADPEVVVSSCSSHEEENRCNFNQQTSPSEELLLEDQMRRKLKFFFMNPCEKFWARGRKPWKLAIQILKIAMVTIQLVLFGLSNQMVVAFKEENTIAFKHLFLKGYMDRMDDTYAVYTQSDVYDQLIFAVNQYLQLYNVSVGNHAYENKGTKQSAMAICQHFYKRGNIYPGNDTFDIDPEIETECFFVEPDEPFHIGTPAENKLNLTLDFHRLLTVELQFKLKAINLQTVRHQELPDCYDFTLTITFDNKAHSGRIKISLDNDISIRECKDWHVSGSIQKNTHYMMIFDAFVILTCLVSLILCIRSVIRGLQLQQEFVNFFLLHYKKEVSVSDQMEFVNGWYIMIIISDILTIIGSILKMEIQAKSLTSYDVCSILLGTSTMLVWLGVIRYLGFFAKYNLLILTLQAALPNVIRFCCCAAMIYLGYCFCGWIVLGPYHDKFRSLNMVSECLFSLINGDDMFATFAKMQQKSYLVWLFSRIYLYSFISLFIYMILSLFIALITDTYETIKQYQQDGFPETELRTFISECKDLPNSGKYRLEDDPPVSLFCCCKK
Summary of the method: as §1

TRPML1, sequence (Q9GZU1 whole entry L15A/L16A/L577A/L578A, form open): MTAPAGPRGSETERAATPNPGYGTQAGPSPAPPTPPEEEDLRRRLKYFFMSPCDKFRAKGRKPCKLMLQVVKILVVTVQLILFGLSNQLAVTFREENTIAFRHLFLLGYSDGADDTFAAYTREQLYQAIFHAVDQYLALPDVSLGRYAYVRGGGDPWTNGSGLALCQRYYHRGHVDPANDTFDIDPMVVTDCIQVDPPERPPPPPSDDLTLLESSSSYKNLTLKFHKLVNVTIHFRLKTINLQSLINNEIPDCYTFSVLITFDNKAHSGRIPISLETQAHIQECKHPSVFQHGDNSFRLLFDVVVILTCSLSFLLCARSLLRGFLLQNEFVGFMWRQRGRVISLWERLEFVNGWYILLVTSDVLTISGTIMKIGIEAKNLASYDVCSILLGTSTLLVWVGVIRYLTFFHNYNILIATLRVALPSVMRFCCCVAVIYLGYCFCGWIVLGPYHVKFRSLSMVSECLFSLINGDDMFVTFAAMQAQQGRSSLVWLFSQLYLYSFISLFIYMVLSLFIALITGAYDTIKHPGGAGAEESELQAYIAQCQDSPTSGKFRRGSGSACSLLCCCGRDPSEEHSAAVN

SMILES | EC50 (TRPML1) [nM] | EC50 (TRPML2) [nM] | EC50 (TRPML3) [nM]
C[C@H]1CN(C(=O)OC(C)(C)C)CCN1c1ncnc2c1c(N1CCOCC1)cn2-c1cccc(C#N)c1 [Compound 324, tert-butyl (S)-4-(7-(3-cyanophenyl)-5-morpholino-7H-pyrrolo[2,3-d]pyrimidin-4-yl)-3-methylpiperazine-1-carboxylate] | < 100 | 500 to 2000 | < 100
C[C@H]1CN(C(=O)OC(C)(C)C)CCN1c1ncnc2c1c(C1CC1)cn2C1CCCCC1 [Compound 326, tert-butyl (S)-4-(7-cyclohexyl-5-cyclopropyl-7H-pyrrolo[2,3-d]pyrimidin-4-yl)-3-methylpiperazine-1-carboxylate] | 100 to 500 | > 2000 | < 100
C[C@H]1CN(C(=O)OC(C)(C)C)CCN1c1ncnc2c1c(-c1cncnc1)cn2-c1cccc(Cl)c1 [Compound 327, tert-butyl (S)-4-(7-(3-chlorophenyl)-5-(pyrimidin-5-yl)-7H-pyrrolo[2,3-d]pyrimidin-4-yl)-3-methylpiperazine-1-carboxylate] | 100 to 500 | 500 to 2000 | < 100
C[C@H]1CN(C(=O)OC(C)(C)C)CCN1c1ncnc2c1c(-c1cncnc1)cn2-c1cccc(C#N)c1 [Compound 328, tert-butyl (S)-4-(7-(3-cyanophenyl)-5-(pyrimidin-5-yl)-7H-pyrrolo[2,3-d]pyrimidin-4-yl)-3-methylpiperazine-1-carboxylate] | 500 to 2000 | > 2000 | 100 to 500
C[C@H]1CN(C(=O)OC(C)(C)C(F)(F)F)CCN1c1ncnc2c1c(-c1cnn(C)c1)cn2-c1cc(C#N)ccn1 [Compound 330, 1,1,1-trifluoro-2-methylpropan-2-yl (S)-4-(7-(4-cyanopyridin-2-yl)-5-(1-methyl-1H-pyrazol-4-yl)-7H-pyrrolo[2,3-d]pyrimidin-4-yl)-3-methylpiperazine-1-carboxylate] | < 100 | 100 to 500 | < 100
C[C@H]1CN(C(=O)OC(C)(C)C)CCN1c1ncnc2c1c(N1CCCC1)cn2-c1cccc(OC(F)(F)F)c1 [Compound 331, tert-butyl (S)-3-methyl-4-(5-(pyrrolidin-1-yl)-7-(3-(trifluoromethoxy)phenyl)-7H-pyrrolo[2,3-d]pyrimidin-4-yl)piperazine-1-carboxylate] | < 100 | < 100 | < 100
C[C@@H]1CN(c2ncnc3c2c(-n2cccn2)cn3-c2cccc(Cl)c2)CCN1C(=O)OC(C)(C)C [Compound 332, tert-butyl (R)-4-(7-(3-chlorophenyl)-5-(1H-pyrazol-1-yl)-7H-pyrrolo[2,3-d]pyrimidin-4-yl)-2-methylpiperazine-1-carboxylate] | < 100 | 500 to 2000 | < 100
C[C@H]1CN(C(=O)OC(C)(C)C)CCN1c1ncnc2c1c(C1CCC1)cn2-c1cc(C#N)ccn1 [Compound 333] | < 100 | < 100 | < 100
C[C@H]1CN(C(=O)OC(C)(C)C)CCN1c1ncnc2c1c(N1CCCC1)cn2C1CCCCC1 [Compound 334, tert-butyl (S)-4-(7-cyclohexyl-5-(pyrrolidin-1-yl)-7H-pyrrolo[2,3-d]pyrimidin-4-yl)-3-methylpiperazine-1-carboxylate] | < 100 | 100 to 500 | < 100
C[C@H]1CN(C(=O)OC(C)(C)C(F)(F)F)CCN1c1ncnc2c1c(-c1cncnc1)cn2-c1cc(C#N)ccn1 [Compound 335] | < 100 | 500 to 2000 | < 100
C[C@H]1CN(C(=O)OC(C)(C)C(F)(F)F)CCN1c1ncnc2c1c(-c1cncnc1)cn2-c1cccc(C#N)c1 [Compound 336, 1,1,1-trifluoro-2-methylpropan-2-yl (S)-4-(7-(3-cyanophenyl)-5-(pyrimidin-5-yl)-7H-pyrrolo[2,3-d]pyrimidin-4-yl)-3-methylpiperazine-1-carboxylate] | 100 to 500 | > 2000 | < 100
C[C@H]1CN(C(=O)OC(C)(C)C)CCN1c1ncnc2c1c(CN1CCCC1)cn2-c1cccc(Cl)c1 [Compound 337, tert-butyl-(S)-4-(7-(3-chlorophenyl)-5-(pyrrolidin-1-ylmethyl)-7H-pyrrolo[2,3-d]pyrimidin-4-yl)-3-methylpiperazine-1-carboxylate] | 500 to 2000 | > 2000 | 100 to 500
C[C@H]1CN(C(=O)OC(C)(C)C)CCN1c1ncnc2c1c(C1CC1)cn2C1CCCC1 [Compound 339, tert-butyl (S)-4-(7-cyclopentyl-5-cyclopropyl-7H-pyrrolo[2,3-d]pyrimidin-4-yl)-3-methylpiperazine-1-carboxylate] | 100 to 500 | > 2000 | 100 to 500

Results, then the compound that gave them:

EC50 (TRPML1) [nM] | EC50 (TRPML2) [nM] | EC50 (TRPML3) [nM] | SMILES
100 to 500 | 500 to 2000 | < 100 | C[C@H]1CN(C(=O)OC(C)(C)C)CCN1c1ncnc2c1c(-n1cccn1)cn2-c1cccc(Cl)c1 [Compound 322, tert-butyl (S)-4-(7-(3-chlorophenyl)-5-(1H-pyrazol-1-yl)-7H-pyrrolo[2,3-d]pyrimidin-4-yl)-3-methylpiperazine-1-carboxylate]
100 to 500 | > 2000 | < 100 | C[C@H]1CN(C(=O)OC(C)(C)C)CCN1c1ncnc2c1c(-n1ccnc1)cn2-c1cccc(Cl)c1 [Compound 323, tert-butyl (S)-4-(7-(3-chlorophenyl)-5-(1H-imidazol-1-yl)-7H-pyrrolo[2,3-d]pyrimidin-4-yl)-3-methylpiperazine-1-carboxylate]
100 to 500 | 100 to 500 | < 100 | C[C@H]1CN(C(=O)OC(C)(C)C(F)(F)F)CCN1c1ncnc2c1c(C1CC1)cn2C1CCCCC1 [Compound 325, 1,1,1-trifluoro-2-methylpropan-2-yl (S)-4-(7-cyclohexyl-5-cyclopropyl-7H-pyrrolo[2,3-d]pyrimidin-4-yl)-3-methylpiperazine-1-carboxylate]
500 to 2000 | > 2000 | 100 to 500 | C[C@H]1CN(C(=O)OC(C)(C)C(F)(F)F)CCN1c1ncnc2c1c(-c1cnn(C)c1)cn2-c1cccc(C#N)c1 [Compound 329, 1,1,1-trifluoro-2-methylpropan-2-yl (S)-4-(7-(3-cyanophenyl)-5-(1-methyl-1H-pyrazol-4-yl)-7H-pyrrolo[2,3-d]pyrimidin-4-yl)-3-methylpiperazine-1-carboxylate]
100 to 500 | > 2000 | 500 to 2000 | C[C@H]1CN(C(=O)OC(C)(C)C)CCN1c1ncnc2c1c(N1CCCC1)cn2C1CCCC1 [Compound 338, tert-butyl (S)-4-(7-cyclopentyl-5-(pyrrolidin-1-yl)-7H-pyrrolo[2,3-d]pyrimidin-4-yl)-3-methylpiperazine-1-carboxylate]
500 to 2000 | > 2000 | 100 to 500 | C[C@H]1CN(C(=O)OC(C)(C)C)CCN1c1ncnc2c1c(C1CC1)cn2C1CCOCC1 [Compound 340, tert-butyl (S)-4-(5-cyclopropyl-7-(tetrahydro-2H-pyran-4-yl)-7H-pyrrolo[2,3-d]pyrimidin-4-yl)-3-methylpiperazine-1-carboxylate]
< 100 | < 100 | < 100 | C[C@@H]1CN(c2ncnc3c2c(N2CCC2)cn3-c2cccc(C#N)c2)CCN1C(=O)OC(C)(C)C [Compound 341, tert-butyl (R)-4-(5-(azetidin-1-yl)-7-(3-cyanophenyl)-7H-pyrrolo[2,3-d]pyrimidin-4-yl)-2-methylpiperazine-1-carboxylate]
